Laboratory results reported in patent publication US5780254A, “Method for detection of herbicides” (Sandoz Ltd, priority 1996, dated 1998).
Like-named read-outs stand apart in the source and are kept apart here.

Columns and labels:
ADSS from wheat germ = target: T1, ADSS from wheat germ (Triticum aestivum, UniProt O24396); assay: ADSS enzyme assay, wheat germ ADSS; assay type: biochemical; conditions: for product formation by ADSS: compound at 100 μM, wheat germ ADSS (not shown)
T1 construct: from tissue
T1 sequence (O24396 whole entry): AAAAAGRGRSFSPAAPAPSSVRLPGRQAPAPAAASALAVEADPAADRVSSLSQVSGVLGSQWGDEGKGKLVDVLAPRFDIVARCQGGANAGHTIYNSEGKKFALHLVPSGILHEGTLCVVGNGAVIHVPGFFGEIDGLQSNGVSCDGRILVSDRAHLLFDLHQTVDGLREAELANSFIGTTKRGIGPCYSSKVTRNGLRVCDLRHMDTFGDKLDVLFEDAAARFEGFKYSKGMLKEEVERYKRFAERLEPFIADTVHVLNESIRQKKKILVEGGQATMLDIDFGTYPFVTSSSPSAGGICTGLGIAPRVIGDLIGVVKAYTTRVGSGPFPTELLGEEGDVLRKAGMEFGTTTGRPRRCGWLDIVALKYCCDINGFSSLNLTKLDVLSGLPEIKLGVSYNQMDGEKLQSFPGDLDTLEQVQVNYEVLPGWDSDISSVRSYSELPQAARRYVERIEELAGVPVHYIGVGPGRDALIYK
Experimental: ADSS is obtained from 4-5 day old, etiolated seedlings of Zea mays. Seedlings are homogenized in a Waring blender with an equal volume (grams of tissue=mls of buffer) of extraction buffer containing 50 mM EPPS, pH 7.5, 5 mM MgCl2, 0.1 mM EDTA, 5 mM sodium bisulfite, 5 mM DTT, 0.1 mM phenylmethanesulfonyl fluoride and 10% glycerol. The extract is expressed through Miracloth (Calbiochem, La Jolla, Calif.) sandwiched between layers of cheesecloth. To precipitate phenolics and nucleic acids, 0.2 to 0.4% w/v protamine sulfate is added to the extract. The extract is stirred for 30 minutes, and then centrifuged at 45,000×G for 60 minutes. The resulting supernatant is fractionated with ammonium sulfate. Proteins are retained which precipitate at concentrations of ammonium sulfate greater than 45% saturation, but less than 55% saturation. Similar methods are used to isolate ADSS from wheat germ, E. coli and rat liver. ADSS activity is further purified by subjecting the preparation to DEAE cellulose chromatography. The column is equilibrated with chromatography buffer consisting of 50 mM EPPS, pH 7.5, 10% glycerol, 0.1 mM EDTA, 5 mM MgCl2 and 1 mM DTT. After loading the enzyme preparation, the column is washed with two bed volumes of the chromatography buffer, then eluted with a linear, 10-bed-volume gradient of 0 to 0.4M KCl dissolved in the same buffer. The peak of ADSS activity elutes at a KCl concentration of about 150 mM. […]
(§1) ADSS is assayed by anion exchange HPLC and by a continuous spectrophotometric assay. […] The column eluate is monitored at 270 nm using a Perkin-Elmer LC 480 diode array detector. Integrated peaks are quantified from standard curves. Identity of the products of the ADSS reaction, GDP and adenylosuccinate, are determined by comparing their retention times and spectra with those of authentic standards, purchased from Sigma Chemical Co.
(§2) For the spectrophotometric assay, reaction mixtures are the same as above, except that the volume is doubled. […] This method of quantification was validated using the HPLC method.

Arabidopsis seeds [1] = assay: Arabidopsis reversal assay with antidote compounds; assay type: in vivo; conditions: for Growth, % of Control: probe compound at 1.5× lethal concentration; for growth without the antidote (in words): probe compound alone, no antidote
Experimental: The solutions are filter sterilized prior to addition. FIG. 4 represents a typical set up in a reversion assay for discovering inhibitors of AMP biosynthesis.
The left side (columns 1-3) of the 24-well microtiter plate is designed for controls, and the right side (columns 4-6) are designated for one probe compound. […] Rows B,C and D are supplemented with three doses of an antidote for the control and probe compound. […] The three doses are 50,100 and 150 μl respectively.
Forty ml of Arabidopsis growth media as described in Example 1 is sterilized and allowed to cool to about 45° C. A probe compound (at 1.5× lethal concentration) is added to columns 4 through 6 (right half of the plate). Media is distributed at 1.0 ml per well to all wells. Sterile seeds are added to each well as described above. As in Example 1, the plate is incubated and growth is scored.

ADSS from rat liver = target: T2, ADSS from rat liver (Rattus norvegicus, UniProt D4AEP0); assay: ADSS enzyme assay, rat liver ADSS; assay type: biochemical; conditions: rat liver ADSS (FIG. 6); for product formation by ADSS: compound at 100 μM
T2 construct: from tissue; host or cells: rat liver
T2 sequence (D4AEP0 1-456): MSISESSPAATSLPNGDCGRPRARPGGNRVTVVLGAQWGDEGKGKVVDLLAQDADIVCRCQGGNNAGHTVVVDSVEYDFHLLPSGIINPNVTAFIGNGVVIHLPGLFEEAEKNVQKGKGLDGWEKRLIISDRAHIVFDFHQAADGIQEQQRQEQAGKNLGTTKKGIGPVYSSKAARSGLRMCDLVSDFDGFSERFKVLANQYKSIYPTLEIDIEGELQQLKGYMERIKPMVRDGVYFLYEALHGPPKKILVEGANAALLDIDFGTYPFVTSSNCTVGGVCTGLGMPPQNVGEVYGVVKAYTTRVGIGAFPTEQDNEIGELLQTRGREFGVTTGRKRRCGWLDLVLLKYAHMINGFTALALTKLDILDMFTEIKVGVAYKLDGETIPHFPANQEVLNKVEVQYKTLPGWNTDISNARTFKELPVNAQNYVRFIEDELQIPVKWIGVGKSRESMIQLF
Experimental: (§3) ADSS is obtained from 4-5 day old, etiolated seedlings of Zea mays. Seedlings are homogenized in a Waring blender with an equal volume (grams of tissue=mls of buffer) of extraction buffer containing 50 mM EPPS, pH 7.5, 5 mM MgCl2, 0.1 mM EDTA, 5 mM sodium bisulfite, 5 mM DTT, 0.1 mM phenylmethanesulfonyl fluoride and 10% glycerol. The extract is expressed through Miracloth (Calbiochem, La Jolla, Calif.) sandwiched between layers of cheesecloth. To precipitate phenolics and nucleic acids, 0.2 to 0.4% w/v protamine sulfate is added to the extract. The extract is stirred for 30 minutes, and then centrifuged at 45,000×G for 60 minutes. The resulting supernatant is fractionated with ammonium sulfate. Proteins are retained which precipitate at concentrations of ammonium sulfate greater than 45% saturation, but less than 55% saturation. Similar methods are used to isolate ADSS from wheat germ, E. coli and rat liver. ADSS activity is further purified by subjecting the preparation to DEAE cellulose chromatography. The column is equilibrated with chromatography buffer consisting of 50 mM EPPS, pH 7.5, 10% glycerol, 0.1 mM EDTA, 5 mM MgCl2 and 1 mM DTT. After loading the enzyme preparation, the column is washed with two bed volumes of the chromatography buffer, then eluted with a linear, 10-bed-volume gradient of 0 to 0.4M KCl dissolved in the same buffer. The peak of ADSS activity elutes at a KCl concentration of about 150 mM. Fractions containing activity are pooled and the proteins concentrated by ultrafiltration. At this stage, the enzyme is suitable for high capacity screening tests that are designed to discover inhibitory compounds. Alternatively, hydrophobic interaction chromatography can be used instead of DEAE-cellulose. This material is optionally further purified by passage through a column of Sephadex G-75 equilibrated with the chromatography buffer described above. The peak of ADSS activity elutes at a retention volume corresponding to a molecular weight of approximately 50,000 Da.
as §1, with “assay. For the former, enzyme is diluted appropriately with 50 mM EPPS, pH 8.3, 10% ethylene glycol, 10 mM potassium phosphate and 1 mM MgCl2 to a volume of 92 μL.” for “assay.”
as §2

ADSS from E. coli = target: T3, ADSS from E. coli (Escherichia coli, UniProt P0A7D4); assay: ADSS enzyme assay, E. coli ADSS; assay type: biochemical; conditions: E. coli ADSS (FIG. 6); for product formation by ADSS: compound at 100 μM
T3 construct: endogenous in cells; host or cells: E. coli
T3 sequence (P0A7D4 2-432): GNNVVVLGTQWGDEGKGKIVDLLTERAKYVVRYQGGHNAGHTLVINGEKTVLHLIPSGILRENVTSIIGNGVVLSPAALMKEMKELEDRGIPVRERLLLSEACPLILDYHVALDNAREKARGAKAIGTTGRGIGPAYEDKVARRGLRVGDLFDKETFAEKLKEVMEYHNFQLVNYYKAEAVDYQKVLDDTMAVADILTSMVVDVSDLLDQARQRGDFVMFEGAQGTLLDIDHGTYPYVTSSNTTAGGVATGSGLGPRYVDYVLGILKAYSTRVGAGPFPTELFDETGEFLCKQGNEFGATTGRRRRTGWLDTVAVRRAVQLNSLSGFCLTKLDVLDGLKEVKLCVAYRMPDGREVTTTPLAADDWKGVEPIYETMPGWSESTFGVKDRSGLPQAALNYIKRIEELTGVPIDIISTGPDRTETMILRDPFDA
Experimental: as §3
as §1, with “assay. For the former, enzyme is diluted appropriately with 50 mM EPPS, pH 8.3, 10% ethylene glycol, 10 mM potassium phosphate and 1 mM MgCl2 to a volume of 92 μL.” for “assay.”
as §2

Arabidopsis seeds [2] = assay: Arabidopsis bioassay, determination of the lethal concentration (LC 90); conditions: read-out: lethal concentration (LC 90)
[3] = target: T4, adenylosuccinate synthetase (ADSS) isolated from maize (Zea mays, UniProt O24578); assay: ADSS enzyme assay (HPLC and spectrophotometric), maize ADSS; assay type: biochemical; conditions: for product formation by ADSS: compound at 100 μM, maize ADSS (not shown); for time course of ADSS inhibition: spectrophotometric assay (FIG. 7, FIG. 8)
T4 construct: ADSS is obtained from 4-5 day old, etiolated seedlings of Zea mays; from tissue; host or cells: 4-5 day old etiolated maize seedlings
T4 sequence (O24578 45-484): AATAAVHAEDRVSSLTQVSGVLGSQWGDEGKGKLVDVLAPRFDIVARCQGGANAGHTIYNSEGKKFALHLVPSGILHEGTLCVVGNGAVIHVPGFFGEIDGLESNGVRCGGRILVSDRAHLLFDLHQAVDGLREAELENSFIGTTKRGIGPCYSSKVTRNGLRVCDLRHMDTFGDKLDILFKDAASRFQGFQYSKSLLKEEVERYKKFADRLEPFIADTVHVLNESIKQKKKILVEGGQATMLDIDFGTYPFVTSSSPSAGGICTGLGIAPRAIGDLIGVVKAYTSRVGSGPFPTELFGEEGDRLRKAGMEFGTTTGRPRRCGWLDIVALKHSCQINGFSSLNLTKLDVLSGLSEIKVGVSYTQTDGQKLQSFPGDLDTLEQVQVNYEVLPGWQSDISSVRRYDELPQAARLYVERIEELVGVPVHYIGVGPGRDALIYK
Experimental: as §3
ADSS is assayed by anion exchange HPLC and by a continuous spectrophotometric assay. For the former, enzyme is diluted appropriately with 50 mM EPPS, pH 8.3, 10% ethylene glycol, 10 mM potassium phosphate and 1 mM MgCl2 to a volume of 92 μL. […] Reactions are stopped by adding 1 μL of 4N HCl. 95 μL of the reaction mixture is injected to a Hamilton PRP-X100 column equilibrated with 3% acetonitrile. Reactants and products are eluted with a convex gradient (Curve=-2) to 6% 1M potassium phosphate, pH 7, and 12% 2M KCl delivered during a span of 30 min by a Perkin-Elmer 410 BIO pump. The column eluate is monitored at 270 nm using a Perkin-Elmer LC 480 diode array detector. Integrated peaks are quantified from standard curves. Identity of the products of the ADSS reaction, GDP and adenylosuccinate, are determined by comparing their retention times and spectra with those of authentic standards, purchased from Sigma Chemical Co.
For the spectrophotometric assay, reaction mixtures are the same as above, except that the volume is doubled. […] The optical density increases as AS is formed. […] This method of quantification was validated using the HPLC method.

[4] = test system: adenylosuccinate lyase (ASL); assay: Assay of adenylosuccinate lyase (ASL); assay type: biochemical, Zea mays; conditions: 1 mM concentration (data not shown)
Experimental: ASL is obtained from three day old, etiolated seedlings of Zea mays (maize). Seedlings are homogenized in a Waring blender with an equal volume (grams of tissue=mls of buffer) of 20 mM potassium phosphate buffer (KP buffer) containing 1 mM DTT. The slurry is then filtered through a cheese cloth and the filtrate subjected to 100,000×g centrifugation for 60 minutes. The clear supernatant is used for assaying ASL activity.
A typical reaction mixture in 1 mL contains 100-300 μL of ASL and 0.15 mM adenylosuccinate (30 μL of a 5 mM solution in KP buffer), the rest being KP buffer. Disappearance of absorbance at 280 nm is followed as a function of time to determine the rate of ASL activity. Inhibitors when needed are included to a final concentration of 1 mM in the assay mixture to observe the effect on the ASL activity. Compounds hydantocidin, N-acetylhydantocidin, NAP-H and hadacidin had no effect on the rate of ASL activity at 1 mM concentration (data not shown).

[5] = background statement; cited from earlier work
glutamine synthetase = conditions: background statement; cited from earlier work
[6] = target: T4, adenylosuccinate synthetase (ADSS) isolated from maize; conditions: known from the literature; cited from earlier work
[7] = antidote Adenosine + Guanosine 0.5-5.0 mM
[8] = antidote Cytidine + Uridine 0.5-5.0 mM
[9] = antidote Hypoxanthine 0.5-5.0 mM
[10] = concentration causing 90% or greater growth inhibition vs control, 7 days, about 28° C.

Row | Compound | product formation by ADSS (ADSS from wheat germ) | Growth, % of Control (Arabidopsis seeds [1]; No antidote, 0 mM) [%] | Growth, % of Control (Arabidopsis seeds [1]; antidote ADP 0.5-5.0 mM) [%] | Growth, % of Control (Arabidopsis seeds [1]; antidote AMP 0.5-5.0 mM) [%] | Growth, % of Control (Arabidopsis seeds [1]; antidote ATP 0.5-5.0 mM) [%] | Growth, % of Control (Arabidopsis seeds [1]; antidote Adenine 0.5-5.0 mM) [%] | Growth, % of Control (Arabidopsis seeds [1]; antidote Adenosine 0.5-5.0 mM) | Growth, % of Control (Arabidopsis seeds [1]; [7]) [%] | Growth, % of Control (Arabidopsis seeds [1]; [8]) [%] | Growth, % of Control (Arabidopsis seeds [1]; antidote Guanine 0.5-5.0 mM) [%] | Growth, % of Control (Arabidopsis seeds [1]; antidote Guanosine 0.5-5.0 mM) [%] | Growth, % of Control (Arabidopsis seeds [1]; [9]) [%] | Growth, % of Control (Arabidopsis seeds [1]; antidote IMP 0.5-5.0 mM) [%] | growth without the antidote (in words) (Arabidopsis seeds [1]) | product formation by ADSS (ADSS from rat liver) | product formation by ADSS (ADSS from E. coli) | IC90 (Arabidopsis seeds [2]; [10]) [µM] | product formation by ADSS [3] | time course of ADSS inhibition [3] | effect on the rate of ASL activity [4] | also measured
1 | 5'-Phospho-N-acetyl-hydantocidin [NAP-H] | Product is not formed | 0 | 100 | 100 | 40 | 65 | 80-100% | 80 | 0 | 0 | 0 | 0 | 5 | Growth is not observed | Product is not formed | Product is not formed | ~8 | Product is not formed | Inhibition is initially weak, but becomes greater | no effect | inhibition of ADSS (in words) (ADSS from wheat germ; 10 μM, crude (desalted) extract from wheat germ, HPLC assay (FIG. 5)): Inhibition of ADSS; inhibition of ADSS (in words) ([3]; 5 μM, spectrophotometric assay): is confirmed; reversibility of ADSS inhibition ([3]; enzyme incubated with 4 μM for 10 min, then Sephadex G-25): inhibition is reversible
2 | O=C1NC(=O)C2(N1)O[C@H](CO)[C@@H](O)[C@H]2O (single isomer, unassigned) [hydantocidin, Hydantocidin] | – | 0 | 100 | 100 | 40 | 60 | 80-100% | 80 | 0 | 0 | 0 | 0 | 5 | Growth is not observed | – | – | – | – | – | no effect | reversal of growth inhibition by aromatic amino acids (in words) [5]: not reversed; reversal of growth inhibition (in words) (Arabidopsis seeds [1]; antidote IMP, doses 50, 100 and 150 μl): did not reverse growth inhibition; reversal of growth inhibition (in words) (Arabidopsis seeds [1]; antidotes adenosine and AMP, rows B and C, wells 4 through 6): Complete growth is observed; reversal of inhibition at the lethal concentration (in words) (Arabidopsis seeds [1]; in the presence of AMP, ADP or adenine): completely reversed; inhibition of ADSS (in words) (ADSS from rat liver): neither the E. coli nor the rat liver ADSS are inhibited; inhibition of ADSS (in words) (ADSS from E. coli): neither the E. coli nor the rat liver ADSS are inhibited; IC90 (Arabidopsis seeds [2]; Arabidopsis thaliana, 168 h): ~2 µM; inhibition of glutamine synthetase (in words) (glutamine synthetase): not inhibited
3 | COc1c(C)c2c(c(O)c1C/C=C(\C)CCC(=O)O)C(=O)OC2 [MPA, Mycophenolic Acid] | – | 0 | – | 5 | – | 0 | 5% | – | – | 40 | 80 | – | 5 | Growth is not observed | – | – | – | – | – | – | Growth, % of Control (Arabidopsis seeds [1]; antidote GMP 0.5-5.0 mM): 90%
4 | NC(=O)c1ncn([C@@H]2O[C@H](CO)[C@@H](O)[C@H]2O)n1 [TCR, 1,2,4-triazole-3-carboxamide-1-ribose] | – | – | – | – | – | – | – | – | – | – | – | – | – | Growth is not observed | – | – | – | – | – | – | –
5 | O=CN(O)CC(=O)O [hadacidin] | Product is not formed | 0 | 100 | 100 | 40 | 55 | 80-100% | 80 | 0 | 0 | 0 | 0 | 5 | Growth is not observed | Product is not formed | Product is not formed | – | Product is not formed | not time dependent | no effect | mode of ADSS inhibition [6]: competitively with aspartate; IC50 ([3]; "under these conditions", ADSS source not given): 3 µM
6 | N-acetyl hydantocidin | – | 0 | 100 | 100 | 40 | 60 | 80-100% | 80 | 0 | 0 | 0 | 0 | 5 | Growth is not observed | – | – | ~12 | – | – | no effect | inhibition of ADSS (in words) (ADSS from rat liver): neither the E. coli nor the rat liver ADSS are inhibited; inhibition of ADSS (in words) (ADSS from E. coli): neither the E. coli nor the rat liver ADSS are inhibited
